# Organism: Rattus norvegicus
# Assay type: toxicity, organism-based, Sprague-Dawley
# Settings: in vivo, po, route oral GAVAGE, vehicle 100 % SALINE; for ABSOLUTE EOSINOPHIL / ABSOLUTE LYMPHOCYTE / ABSOLUTE MONOCYTE / ABSOLUTE SEGMENTED NEUTROPHIL / BASOPHIL / EOSINOPHIL / ERYTHROCYTE COUNT / HEMATOCRIT / HEMOGLOBIN / LEUKOCYTE COUNT / LYMPHOCYTE / MEAN CORPUSCULAR HEMOGLOBIN / MEAN CORPUSCULAR HEMOGLOBIN CONCENTRATION / MONOCYTE / NEUTROPHIL / NUCLEATED RED BLOOD CELLS / PLATELET COUNT: tissue Blood; for ALANINE AMINOTRANSFERASE / ALBUMIN / ALKALINE PHOSPHATASE / ASPARTATE AMINOTRANSFERASE / BLOOD UREA NITROGEN / CARBON DIOXIDE / CHLORIDE / CHOLESTEROL / CREATINE PHOSPHOKINASE / CREATININE / GLUCOSE / LACTATE DEHYDROGENASE / LIPASE / PHOSPHORUS / POTASSIUM / SODIUM / TOTAL BILIRUBIN / TOTAL PROTEIN / URIC ACID: tissue Plasma
# [1] = 700 mg/kg, 24 h, dose level Low, time 1 day
# [2] = 2100 mg/kg, 6 h, dose level High, time 0.25 day
# [3] = 2100 mg/kg, 24 h, dose level High, time 1 day
# Description: DrugMatrix - Regimen: Single
compound,measurement,setting,value
CN(C)C=O [DIMETHYLFORMAMIDE],ABSOLUTE EOSINOPHIL,[1],0 CELLS/uL
same,ABSOLUTE LYMPHOCYTE,[1],11354.83 CELLS/uL
same,ABSOLUTE MONOCYTE,[1],102.33 CELLS/uL
same,ABSOLUTE SEGMENTED NEUTROPHIL,[1],726.17 CELLS/uL
same,BASOPHIL,[1],0%
same,EOSINOPHIL,[1],0%
same,ERYTHROCYTE COUNT,[1],5.12 x10E6/uL
same,HEMATOCRIT,[1],33.43%
same,HEMOGLOBIN,[1],13.52 G/DL
same,LEUKOCYTE COUNT,[1],12.18 x10E3/uL
same,LYMPHOCYTE,[1],93.17%
same,MEAN CORPUSCULAR HEMOGLOBIN,[1],26.43 pg
same,MEAN CORPUSCULAR HEMOGLOBIN CONCENTRATION,[1],40.52 G/DL
same,MONOCYTE,[1],0.83%
same,NEUTROPHIL,[1],6%
same,NUCLEATED RED BLOOD CELLS,[1],0 /100WBC
same,PLATELET COUNT,[1],1092.67 x10E3/uL
same,ALANINE AMINOTRANSFERASE,[1],23.17 u/L
same,ALBUMIN,[1],4.17 G/DL
same,ALKALINE PHOSPHATASE,[1],336.83 u/L
same,ASPARTATE AMINOTRANSFERASE,[1],50.5 u/L
same,BLOOD UREA NITROGEN,[1],12.5 mg/dL
same,CARBON DIOXIDE,[1],31.17 mmol/L
same,CHLORIDE,[1],96.83 MEQ/L
same,CHOLESTEROL,[1],74.83 mg/dL
same,CREATINE PHOSPHOKINASE,[1],314.83 u/L
same,CREATININE,[1],0.19 mg/dL
same,GLUCOSE,[1],144.5 mg/dL
same,LACTATE DEHYDROGENASE,[1],95 u/L
same,LIPASE,[1],9.67 u/L
same,PHOSPHORUS,[1],10.98 mg/dL
same,POTASSIUM,[1],5.69 MEQ/L
same,SODIUM,[1],142.42 MEQ/L
same,TOTAL BILIRUBIN,[1],0.12 mg/dL
same,TOTAL PROTEIN,[1],6.2 G/DL
same,URIC ACID,[1],0.68 mg/dL
same,ABSOLUTE EOSINOPHIL,[2],125.17 CELLS/uL
same,ABSOLUTE LYMPHOCYTE,[2],14316 CELLS/uL
same,ABSOLUTE MONOCYTE,[2],63 CELLS/uL
same,ABSOLUTE SEGMENTED NEUTROPHIL,[2],1412.5 CELLS/uL
same,BASOPHIL,[2],0%
same,EOSINOPHIL,[2],0.83%
same,ERYTHROCYTE COUNT,[2],5.21 x10E6/uL
same,HEMATOCRIT,[2],35.07%
same,HEMOGLOBIN,[2],12.68 G/DL
same,LEUKOCYTE COUNT,[2],15.92 x10E3/uL
same,LYMPHOCYTE,[2],89.67%
same,MEAN CORPUSCULAR HEMOGLOBIN,[2],24.33 pg
same,MEAN CORPUSCULAR HEMOGLOBIN CONCENTRATION,[2],36.2 G/DL
same,MONOCYTE,[2],0.33%
same,NEUTROPHIL,[2],9.17%
same,NUCLEATED RED BLOOD CELLS,[2],0 /100WBC
same,PLATELET COUNT,[2],1045.5 x10E3/uL
same,ALANINE AMINOTRANSFERASE,[2],61 u/L
same,ALBUMIN,[2],4.12 G/DL
same,ALKALINE PHOSPHATASE,[2],276.83 u/L
same,ASPARTATE AMINOTRANSFERASE,[2],108.5 u/L
same,BLOOD UREA NITROGEN,[2],6.5 mg/dL
same,CARBON DIOXIDE,[2],20.17 mmol/L
same,CHLORIDE,[2],106 MEQ/L
same,CHOLESTEROL,[2],72.83 mg/dL
same,CREATINE PHOSPHOKINASE,[2],210.67 u/L
same,CREATININE,[2],0.24 mg/dL
same,GLUCOSE,[2],180 mg/dL
same,LACTATE DEHYDROGENASE,[2],149.33 u/L
same,LIPASE,[2],8.17 u/L
same,PHOSPHORUS,[2],13.73 mg/dL
same,SODIUM,[2],144.38 MEQ/L
same,TOTAL BILIRUBIN,[2],0.1 mg/dL
same,TOTAL PROTEIN,[2],5.32 G/DL
same,URIC ACID,[2],2.23 mg/dL
same,ABSOLUTE EOSINOPHIL,[3],20.83 CELLS/uL
same,ABSOLUTE LYMPHOCYTE,[3],12212.83 CELLS/uL
same,ABSOLUTE MONOCYTE,[3],201.33 CELLS/uL
same,ABSOLUTE SEGMENTED NEUTROPHIL,[3],481.67 CELLS/uL
same,BASOPHIL,[3],0%
same,EOSINOPHIL,[3],0.17%
same,ERYTHROCYTE COUNT,[3],5.11 x10E6/uL
same,HEMATOCRIT,[3],32.92%
same,HEMOGLOBIN,[3],13.1 G/DL
same,LEUKOCYTE COUNT,[3],12.92 x10E3/uL
same,LYMPHOCYTE,[3],94.67%
same,MEAN CORPUSCULAR HEMOGLOBIN,[3],25.65 pg
same,MEAN CORPUSCULAR HEMOGLOBIN CONCENTRATION,[3],39.83 G/DL
same,MONOCYTE,[3],1.5%
same,NEUTROPHIL,[3],3.67%
same,NUCLEATED RED BLOOD CELLS,[3],0.17 /100WBC
same,PLATELET COUNT,[3],1033.5 x10E3/uL
same,ALANINE AMINOTRANSFERASE,[3],24.17 u/L
same,ALBUMIN,[3],4.07 G/DL
same,ALKALINE PHOSPHATASE,[3],292.33 u/L
same,ASPARTATE AMINOTRANSFERASE,[3],43.17 u/L
same,BLOOD UREA NITROGEN,[3],10.5 mg/dL
same,CARBON DIOXIDE,[3],30.5 mmol/L
same,CHLORIDE,[3],99.17 MEQ/L
same,CHOLESTEROL,[3],80.33 mg/dL
same,CREATINE PHOSPHOKINASE,[3],164.67 u/L
same,CREATININE,[3],0.19 mg/dL
same,GLUCOSE,[3],147.33 mg/dL
same,LACTATE DEHYDROGENASE,[3],73.33 u/L
same,LIPASE,[3],10.33 u/L
same,PHOSPHORUS,[3],10.72 mg/dL
same,POTASSIUM,[3],5.2 MEQ/L
same,SODIUM,[3],143.78 MEQ/L
same,TOTAL BILIRUBIN,[3],0.1 mg/dL
same,TOTAL PROTEIN,[3],5.97 G/DL
same,URIC ACID,[3],0.63 mg/dL
